Laboratory results as given in ChEMBL document CHEMBL3751822, “C1C2-linker substituted 1,5-naphthyridine analogues of oxabicyclooctane-linked NBTIs as broad-spectrum antibacterial agents (part 7)” (Medchemcomm, 2015).
In brackets after ≈: the same amount, converted by molar mass.

How the values were obtained:
Escherichia coli = assay: Antibacterial activity against Escherichia coli ATCC 25922 by micro-broth dilution method; type: functional
Acinetobacter baumannii = assay: Antibacterial activity against Acinetobacter baumannii IID876 by micro-broth dilution method; type: functional
Staphylococcus aureus [1] = assay: Antibacterial activity against methicillin resistant Staphylococcus aureus OIT971 by micro-broth dilution method; type: functional
Staphylococcus aureus [2] = assay: Antibacterial activity against Staphylococcus aureus Smith by micro-broth dilution method; type: functional
[3] = target: Voltage-gated inwardly rectifying potassium channel KCNH2 (Homo sapiens, UniProt Q12809); assay: Displacement of MK499 from human ERG
Pseudomonas aeruginosa = assay: Antibacterial activity against Pseudomonas aeruginosa PAO1 by micro-broth dilution method; type: functional
Enterococcus faecium = assay: Antibacterial activity against Enterococcus faecium VanA by micro-broth dilution method; type: functional
Staphylococcus aureus [4] = assay: Ratio of MIC for quinolone-resistant Staphylococcus aureus MS5935 to MIC for quinolone-sensitive Staphylococcus aureus MS5935; type: functional
Streptococcus pneumoniae = assay: Antibacterial activity against Streptococcus pneumoniae IID553 by micro-broth dilution method; type: functional
Staphylococcus aureus [5] = assay: Antibacterial activity against Staphylococcus aureus infected in po dosed mouse; type: functional
Staphylococcus aureus [6] = assay: Antibacterial activity against Staphylococcus aureus infected in iv dosed mouse; type: functional
[7] = Escherichia coli, ATCC 25922, read-out: MIC
[8] = Acinetobacter baumannii, IID876, read-out: MIC
[9] = Staphylococcus aureus, OIT971, read-out: MIC
[10] = Staphylococcus aureus, Smith, read-out: MIC
[11] = Pseudomonas aeruginosa, PAO1, read-out: MIC
[12] = Enterococcus faecium, VanA, read-out: MIC
[13] = Streptococcus pneumoniae, IID553, read-out: MIC

Chain of Voltage-gated inwardly rectifying potassium channel KCNH2 (Q12809 whole entry): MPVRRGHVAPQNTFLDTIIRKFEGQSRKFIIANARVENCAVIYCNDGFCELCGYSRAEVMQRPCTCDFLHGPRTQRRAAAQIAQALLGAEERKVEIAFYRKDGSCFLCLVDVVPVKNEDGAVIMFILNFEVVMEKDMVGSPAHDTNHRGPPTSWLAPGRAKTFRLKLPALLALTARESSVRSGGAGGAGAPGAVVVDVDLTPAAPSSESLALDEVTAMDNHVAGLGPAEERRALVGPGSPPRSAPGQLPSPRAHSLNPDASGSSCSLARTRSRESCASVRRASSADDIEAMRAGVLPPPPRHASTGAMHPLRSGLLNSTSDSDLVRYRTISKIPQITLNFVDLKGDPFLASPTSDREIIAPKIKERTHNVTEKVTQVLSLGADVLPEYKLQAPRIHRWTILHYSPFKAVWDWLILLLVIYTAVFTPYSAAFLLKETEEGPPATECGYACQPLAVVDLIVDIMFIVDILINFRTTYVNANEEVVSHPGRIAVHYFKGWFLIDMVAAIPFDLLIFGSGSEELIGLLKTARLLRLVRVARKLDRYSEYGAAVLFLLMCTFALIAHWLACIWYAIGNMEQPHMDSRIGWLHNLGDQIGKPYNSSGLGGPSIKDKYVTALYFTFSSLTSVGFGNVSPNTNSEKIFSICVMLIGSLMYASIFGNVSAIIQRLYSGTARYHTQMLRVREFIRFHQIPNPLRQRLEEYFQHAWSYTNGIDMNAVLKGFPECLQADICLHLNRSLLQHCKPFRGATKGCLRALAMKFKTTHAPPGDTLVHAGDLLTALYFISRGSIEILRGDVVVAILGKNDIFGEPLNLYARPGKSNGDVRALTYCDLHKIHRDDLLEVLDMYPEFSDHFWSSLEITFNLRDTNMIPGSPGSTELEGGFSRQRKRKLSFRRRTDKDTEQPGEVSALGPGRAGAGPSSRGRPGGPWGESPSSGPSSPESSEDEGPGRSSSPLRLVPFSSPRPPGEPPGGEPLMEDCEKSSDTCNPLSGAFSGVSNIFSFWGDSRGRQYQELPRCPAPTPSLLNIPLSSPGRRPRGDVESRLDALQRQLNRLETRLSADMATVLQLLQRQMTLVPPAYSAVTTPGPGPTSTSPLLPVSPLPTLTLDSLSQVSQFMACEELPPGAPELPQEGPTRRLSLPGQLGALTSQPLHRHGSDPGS

Compound | MIC (Escherichia coli; [7]) [µg/mL] | MIC (Acinetobacter baumannii; [8]) [µg/mL] | MIC (Staphylococcus aureus [1]; [9]) [µg/mL] | MIC (Staphylococcus aureus [2]; [10]) [µg/mL] | IC50 [3] [µM] | MIC (Pseudomonas aeruginosa; [11]) [µg/mL] | MIC (Enterococcus faecium; [12]) [µg/mL] | Ratio (Staphylococcus aureus [4]) | MIC (Streptococcus pneumoniae; [13]) [µg/mL] | other results
COc1ccc2ncc(F)c(CC(C)(O)C34CCC(NCc5ccc6c(n5)NC(=O)CO6)(CC3)CO4)c2n1 (racemic) | 8 (≈ 15.3 µM) | 2 (≈ 3.82 µM) | 0.06 (≈ 0.115 µM) | 0.06 (≈ 0.115 µM) | 6.1 | 32 (≈ 61.1 µM) | 4 (≈ 7.64 µM) | <4 | 0.5 (≈ 0.955 µM) | –
COc1ccc2ncc(F)c(CC(O)(C(F)(F)F)C34CCC(NCc5ccc6c(n5)NC(=O)CO6)(CC3)CO4)c2n1 (racemic) | 32 (≈ 55.4 µM) | 32 (≈ 55.4 µM) | 0.5 (≈ 0.866 µM) | 0.5 (≈ 0.866 µM) | – | 32 (≈ 55.4 µM) | 32 (≈ 55.4 µM) | – | 4 (≈ 6.93 µM) | –
COc1ccc2ncc(F)c(C(CO)CC34CCC(NCc5ccc6c(n5)NC(=O)CO6)(CC3)CO4)c2n1 (racemic) | 32 (≈ 61.1 µM) | 16 (≈ 30.6 µM) | 1 (≈ 1.91 µM) | 1 (≈ 1.91 µM) | – | 32 (≈ 61.1 µM) | 16 (≈ 30.6 µM) | – | 2 (≈ 3.82 µM) | –
COc1ccc2ncc(F)c(C(C)(O)CC34CCC(NCc5ccc6c(n5)NC(=O)CO6)(CC3)CO4)c2n1 (racemic) | 32 (≈ 61.1 µM) | 32 (≈ 61.1 µM) | 1 (≈ 1.91 µM) | 1 (≈ 1.91 µM) | – | 32 (≈ 61.1 µM) | 16 (≈ 30.6 µM) | – | 4 (≈ 7.64 µM) | –
COc1ccc2ncc(F)c(CC(OCC(=O)O)C34CCC(NCc5ccc6c(n5)NC(=O)CO6)(CC3)CO4)c2n1 (racemic) | 32 (≈ 56.4 µM) | 32 (≈ 56.4 µM) | 4 (≈ 7.05 µM) | 4 (≈ 7.05 µM) | – | 32 (≈ 56.4 µM) | 32 (≈ 56.4 µM) | – | 32 (≈ 56.4 µM) | –
COc1ccc2ncc(F)c(C(O)CC34CCC(NCc5ccc6c(n5)NC(=O)CO6)(CC3)CO4)c2n1.Cl (single isomer, unassigned; (+)) | – | – | – | – | – | – | – | – | – | ED50 (Staphylococcus aureus [5]; Staphylococcus aureus, po, read-out: ED50): 6.4 mg/kg; ED50 (Staphylococcus aureus [6]; Staphylococcus aureus, iv, read-out: ED50): 5.9 mg/kg
COc1ccc2ncc(F)c(CC(N)C34CCC(NCc5ccc6c(n5)NC(=O)CO6)(CC3)CO4)c2n1 (single isomer, unassigned; (+)) | 1 (≈ 1.97 µM) | 0.25 (≈ 0.492 µM) | 0.25 (≈ 0.492 µM) | 0.25 (≈ 0.492 µM) | – | 16 (≈ 31.5 µM) | 8 (≈ 15.7 µM) | – | 2 (≈ 3.93 µM) | –
COc1ccc2ncc(F)c(CC(N)C34CCC(NCc5ccc6c(n5)NC(=O)CO6)(CC3)CO4)c2n1.Cl (single isomer, unassigned; (+)) | – | – | – | – | – | – | – | – | – | ED50 (Staphylococcus aureus [5]): 50 mg/kg; ED50 (Staphylococcus aureus [6]): 25 mg/kg
COc1ccc2ncc(F)c(C(O)CC34CCC(NCc5ccc6c(n5)NC(=O)CO6)(CC3)CO4)c2n1 (single isomer, unassigned; (+)) | 8 (≈ 15.7 µM) | 1 (≈ 1.96 µM) | – | – | 4 | 16 (≈ 31.4 µM) | 4 (≈ 7.85 µM) | <4 | – | MIC (Staphylococcus aureus [1]): 0.13 µg/mL (≈ 0.255 µM); MIC (Staphylococcus aureus [2]): 0.13 µg/mL (≈ 0.255 µM); MIC (Streptococcus pneumoniae): 1 µg/mL (≈ 1.96 µM)
COc1ccc2ncc(F)c([C@H]3OC(=O)O[C@@H]3C34CCC(NCc5ccc6c(n5)NC(=O)CO6)(CC3)CO4)c2n1 (single isomer, unassigned; (+)) | 16 (≈ 29 µM) | 16 (≈ 29 µM) | 2 (≈ 3.63 µM) | 2 (≈ 3.63 µM) | 11.2 | 16 (≈ 29 µM) | 16 (≈ 29 µM) | <4 | 16 (≈ 29 µM) | –
COc1ccc2ncc(F)c(C(O)CC34CCC(NCc5ccc6c(n5)NC(=O)CO6)(CC3)CO4)c2n1.Cl (single isomer, unassigned; (-)) | – | – | – | – | – | – | – | – | – | ED50 (Staphylococcus aureus [5]): 4.8 mg/kg; ED50 (Staphylococcus aureus [6]): 3.7 mg/kg
COc1ccc2ncc(F)c(CC(N)C34CCC(NCc5ccc6c(n5)NC(=O)CO6)(CC3)CO4)c2n1 (single isomer, unassigned; (-)) | – | – | – | – | – | – | – | – | – | MIC (Escherichia coli): 1 µg/mL (≈ 1.97 µM); MIC (Acinetobacter baumannii): 0.25 µg/mL (≈ 0.492 µM); MIC (Staphylococcus aureus [1]): 0.13 µg/mL (≈ 0.256 µM); MIC (Staphylococcus aureus [2]): 0.13 µg/mL (≈ 0.256 µM); MIC (Pseudomonas aeruginosa): 8 µg/mL (≈ 15.7 µM); MIC (Enterococcus faecium): 4 µg/mL (≈ 7.87 µM); MIC (Streptococcus pneumoniae): 2 µg/mL (≈ 3.93 µM)
COc1ccc2ncc(F)c([C@H](O)[C@@H](O)C34CCC(NCc5ccc6c(n5)NC(=O)CO6)(CC3)CO4)c2n1 (single isomer, unassigned; (-)) | 16 (≈ 30.4 µM) | 2 (≈ 3.81 µM) | 1 (≈ 1.9 µM) | 1 (≈ 1.9 µM) | 36.1 | 64 (≈ 122 µM) | 16 (≈ 30.4 µM) | <4 | 8 (≈ 15.2 µM) | –
COc1ccc2ncc(F)c(C(O)CC34CCC(NCc5ccc6c(n5)NC(=O)CO6)(CC3)CO4)c2n1 (single isomer, unassigned; (-)) | – | – | – | – | 1.3 | – | – | – | – | MIC (Escherichia coli): 4 µg/mL (≈ 7.85 µM); MIC (Acinetobacter baumannii): 1 µg/mL (≈ 1.96 µM); MIC (Staphylococcus aureus [1]): 0.03 µg/mL (≈ 0.0589 µM); MIC (Staphylococcus aureus [2]): 0.03 µg/mL (≈ 0.0589 µM); MIC (Pseudomonas aeruginosa): 16 µg/mL (≈ 31.4 µM); MIC (Enterococcus faecium): 2 µg/mL (≈ 3.93 µM); MIC (Streptococcus pneumoniae): 0.25 µg/mL (≈ 0.491 µM)
COc1ccc2ncc(F)c([C@@H]3OC(=O)O[C@H]3C34CCC(NCc5ccc6c(n5)NC(=O)CO6)(CC3)CO4)c2n1 (single isomer, unassigned; (-)) | 16 (≈ 29 µM) | 16 (≈ 29 µM) | 0.25 (≈ 0.453 µM) | 0.25 (≈ 0.453 µM) | 4.9 | 16 (≈ 29 µM) | 8 (≈ 14.5 µM) | <4 | 2 (≈ 3.63 µM) | –
COc1ccc2ncc(F)c(CC(N)C34CCC(NCc5ccc6c(n5)NC(=O)CO6)(CC3)CO4)c2n1.Cl (stereo in doubt) | – | – | – | – | – | – | – | – | – | ED50 (Staphylococcus aureus [5]): 21 mg/kg; ED50 (Staphylococcus aureus [6]): 11 mg/kg
